In US10662159B2, “ABHD6 and dual ABHD6/MGL inhibitors and their uses” (MAKScientific, LLC, priority 2017, dated 2020) one finds IC50 data, which are given here for 18 molecules.

pIC50: −log10 of the molar value. A value given as a limit tells only on which side of the number the result lay.

What all share (format): biochemical
One experiment addresses Rat ΔTM FAAH (Rattus norvegicus (Rat), UniProt P97612). Put plainly: Fluorescent assay for rat ΔTM FAAH (AAMCA substrate). The settings on record: ΔTM rFAAH, AAMCA 20 μM; read-out: rFAAH Inhibition IC50. On the procedure:
(§1) Certain compounds were tested for their ABHD6 and dual ABHD6/MGL inhibitory activity, which is expressed as % of inhibition or IC50 values in Table 1. The percentage of inhibition describes the percentage by which the inhibitor reduces the velocity/rate of 2-AG hydrolysis by ABHD6, and MGL or AEA hydrolysis by FAAH. The IC50 is the concentration of the inhibitor, which results in 50% inhibition of the velocity/rate of 2-AG hydrolysis by ABHD6 or MGL. The IC50 is the concentration of the inhibitor, which results in 50% inhibition of the velocity/rate of AEA hydrolysis by FAAH. The lower the IC50 values, the higher its inhibitory activity. A detailed description of the methods used to test inhibitory activity of compounds is given below.
Example 79. Preparation of Transmembrane Domain-Deleted Rat FAAH (ΔTM rFAAH)
Rat ΔTM FAAH was expressed in E. coli cells and purified using the procedure disclosed by Patricelli et al. Biochemistry (1998) 37: 15177-15187.
Example 81. Fluorescent Assay Protocol for Rat ΔTM FAAH
(§2) The fluorescence reading at the 3 hour time point (linear enzyme kinetics) was used to calculate percent inhibition based on control assays without inhibitor present. All FAAH assays were performed in triplicate for each inhibitor concentration, and IC50 values determined using Prizm software (GraphPad Software, Inc.).

In another experiment the target is hMGL (Homo sapiens (Human), UniProt Q99685). In words: Fluorescent assay for hMGL (AHMMCE substrate hydrolysis). Conditions: E. coli lysate containing hMGL, read-out: hMGL Inhibition IC50. On the procedure: (§3) Certain compounds were tested for their ABHD6 and dual ABHD6/MGL inhibitory activity, which is expressed as % of inhibition or IC50 values in Table 1. The percentage of inhibition describes the percentage by which the inhibitor reduces the velocity/rate of 2-AG hydrolysis by ABHD6, and MGL or AEA hydrolysis by FAAH. […] The lower the IC50 values, the higher its inhibitory activity. A detailed description of the methods used to test inhibitory activity of compounds is given below.
Preparation of Human MAGL (hMAGL)
Fluorescent Assay Protocol for hMGL
This medium throughput assay involved a 96-well plate format in which hMGL activity was monitored by the hydrolysis of the substrate […] (AHMMCE) to form the fluorescent product, coumarin. […] Upon the addition of AHMMCE, the reaction was incubated at 25° C. for 120 min; fluorescence readings were taken every 15 min at 360 nm/460 nm (λexcitation/λemission) using a Synergy HT Plate Reader (Bio-Tek, Winooski, Vt.). […] External standards were used to convert relative fluorescence units to the amount of 4-methylcoumarin formed. All MGL assays were performed in triplicate for each inhibitor concentration, and IC50 values were calculated using Prizm software (GraphPad Software, Inc., San Diego, Calif.).

A further experiment has as its target hFAAH (Homo sapiens (Human), UniProt O00519). Put plainly: Fluorescent assay for hFAAH. The settings on record: MBP ΔTM hFAAH, procedure as for rFAAH; read-out: hFAAH Inhibition IC50. On the procedure:
as §1
Example 80. Preparation of Human FAAH in Fusion with N-Terminal Maltose Binding Tag (MBP ΔTM hFAAH)
Human FAAH without putative transmembrane domain following maltose binding protein was expressed in E. coli cells using pMALcE4 vector Alapafuja et al J. Med. Chem. (2012) 55: 10074-89.
as §2
Example 82. Fluorescent Assay Protocol for hFAAH
Procedure was followed as described for rFAAH.

A further experiment deals with hABHD6 (Homo sapiens (Human), UniProt Q9BV23). In words: Fluorescent assay for hABHD6 (AHMMCE substrate hydrolysis). The settings on record: membrane fraction containing full-length hABHD6, 20 μM AHMMCE; read-out: ABHD6 Inhibition IC50. On the procedure:
as §3
Fluorescent Assays Protocol for hABHD6
Initial Fluorescent Inhibition Assay (3-Point)—
In each well of a 96-well plate 8 μL of membrane fraction containing full-length hABHD6 (1 μg total protein) was mixed with 168 μL of assay buffer (50 mM Tris-HCl, pH 7.6), and 20 μL of diluted compound (diluted in a dilution buffer consisting of 50% DMSO/50% assay buffer v/v). Each plate was incubated at RT for 15 minutes before adding 4 μL of 1 mM AHMMCE substrate (final concentration of 20 μM AHMMCE and final volume of 200 μL). The reaction was allowed to proceed for 1 hr at RT before the fluorescence was read at λex 360 nm and λem 460 nm and the inhibition calculated. Each experiment can test 8 compounds at three concentrations (usually 10 μM, 1 μM, and 100 nM).
IC50 Determination Assay (8-Point)—
A more detailed assay with an extended range tests compounds over 8 concentrations depending on the pre-determined approximate IC50 value from the initial screen. […] The assay was conducted in 96 well plate with each well containing the same reaction mixture detailed above in the 3-point screen. The relative fluorescence is quantified into coumarin produced by using a standard curve of HMMC in triplicate on each plate. Results are normalized to the negative control wells and the IC50 is determined using a non-linear regression curve fit in Prism, version 5 (GraphPad, San Diego, Calif.).

Chain of hABHD6 (Q9BV23 whole entry): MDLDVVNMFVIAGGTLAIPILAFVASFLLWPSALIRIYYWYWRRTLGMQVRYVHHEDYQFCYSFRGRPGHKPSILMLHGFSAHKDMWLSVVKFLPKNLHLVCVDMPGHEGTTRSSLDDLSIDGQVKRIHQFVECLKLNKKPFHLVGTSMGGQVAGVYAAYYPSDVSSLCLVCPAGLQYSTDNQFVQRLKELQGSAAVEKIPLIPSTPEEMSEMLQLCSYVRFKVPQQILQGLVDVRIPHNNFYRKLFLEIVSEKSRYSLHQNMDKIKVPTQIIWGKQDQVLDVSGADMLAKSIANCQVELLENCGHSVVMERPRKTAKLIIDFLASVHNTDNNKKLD
Chain of hFAAH (O00519 30-579): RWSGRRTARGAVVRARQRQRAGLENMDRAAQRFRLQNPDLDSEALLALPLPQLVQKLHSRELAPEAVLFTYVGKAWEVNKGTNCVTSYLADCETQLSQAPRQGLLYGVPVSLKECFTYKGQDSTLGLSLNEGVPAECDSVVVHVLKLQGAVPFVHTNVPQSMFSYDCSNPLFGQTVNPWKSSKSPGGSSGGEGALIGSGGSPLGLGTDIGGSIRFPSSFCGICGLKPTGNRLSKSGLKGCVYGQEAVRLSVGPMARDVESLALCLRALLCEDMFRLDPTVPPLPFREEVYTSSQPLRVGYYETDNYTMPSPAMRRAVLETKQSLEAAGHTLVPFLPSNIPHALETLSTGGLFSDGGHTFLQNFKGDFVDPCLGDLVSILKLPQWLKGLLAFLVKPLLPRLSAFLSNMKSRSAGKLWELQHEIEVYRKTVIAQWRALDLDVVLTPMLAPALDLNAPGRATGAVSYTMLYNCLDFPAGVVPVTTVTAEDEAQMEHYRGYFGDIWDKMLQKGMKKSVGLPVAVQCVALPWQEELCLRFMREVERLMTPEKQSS
Chain of hMGL (Q99685 whole entry): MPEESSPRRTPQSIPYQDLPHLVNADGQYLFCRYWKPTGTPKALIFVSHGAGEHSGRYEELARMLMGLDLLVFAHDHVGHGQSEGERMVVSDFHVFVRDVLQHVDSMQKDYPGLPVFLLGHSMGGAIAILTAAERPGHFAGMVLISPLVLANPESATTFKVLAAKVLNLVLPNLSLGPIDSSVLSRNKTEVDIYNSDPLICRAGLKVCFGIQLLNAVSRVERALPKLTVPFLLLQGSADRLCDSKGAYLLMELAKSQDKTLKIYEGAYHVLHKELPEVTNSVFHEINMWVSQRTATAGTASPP
Chain of Rat ΔTM FAAH (P97612 30-579): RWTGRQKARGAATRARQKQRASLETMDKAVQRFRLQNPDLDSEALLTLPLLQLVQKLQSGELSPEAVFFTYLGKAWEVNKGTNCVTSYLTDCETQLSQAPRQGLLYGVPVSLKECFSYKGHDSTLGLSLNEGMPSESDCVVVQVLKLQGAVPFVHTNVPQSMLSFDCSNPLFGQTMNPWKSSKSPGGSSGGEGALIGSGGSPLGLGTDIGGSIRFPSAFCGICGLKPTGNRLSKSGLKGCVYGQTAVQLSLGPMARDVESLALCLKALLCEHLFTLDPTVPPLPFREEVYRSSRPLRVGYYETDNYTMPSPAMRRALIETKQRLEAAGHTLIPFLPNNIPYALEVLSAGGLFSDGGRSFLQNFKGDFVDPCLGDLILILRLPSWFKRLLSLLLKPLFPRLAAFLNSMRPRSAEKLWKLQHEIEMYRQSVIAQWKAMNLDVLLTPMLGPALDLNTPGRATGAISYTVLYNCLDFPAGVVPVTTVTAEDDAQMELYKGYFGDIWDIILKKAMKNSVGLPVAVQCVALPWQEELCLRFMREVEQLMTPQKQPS

With `CC1c2ccccc2CCN1C(=O)OC(C(F)(F)F)C(F)(F)F` (racemic) [Example 6, 1,1,1,3,3,3-Hexafluoropropan-2-yl 1-methyl-3,4-dihydroisoquinoline-2(1H)-carboxylate], the pIC50 on Rat ΔTM FAAH, on hMGL, at hFAAH and on hABHD6 was less than 6.00 in each case.
`CCC1c2ccccc2CCN1C(=O)OC(C(F)(F)F)C(F)(F)F` (racemic) [Example 7, 1,1,1,3,3,3-Hexafluoropropan-2-yl 1-ethyl-3,4-dihydroisoquinoline-2(1H)-carboxylate]: the pIC50 on Rat ΔTM FAAH, at hMGL, at hFAAH and at hABHD6 was less than 6.00 each time.
As to `O=C(OC(C(F)(F)F)C(F)(F)F)N1CCc2ccccc2C1` [Example 1, 1,1,1,3,3,3-Hexafluoropropan-2-yl 3,4-dihydroisoquinoline-2(1H)-carboxylate], the pIC50 (commonly −log10 of the IC50, conventionally taken in molar units) on Rat ΔTM FAAH was less than 6.00; at hMGL, less than 6.00; at hFAAH, less than 6.00; on hABHD6, 7.00 to 8.00.
Take `O=C(OC(C(F)(F)F)C(F)(F)F)N1CCc2ccccc2[C@H]1c1ccccc1` [Example 2, 1,1,1,3,3,3-Hexafluoropropan-2-yl(R)-1-phenyl-3,4-dihydroisoquinoline-2(1H)-carboxylate]: the pIC50 on Rat ΔTM FAAH, at hMGL, at hFAAH and on hABHD6 was less than 6.00 throughout.
In the case of `O=C(OC(C(F)(F)F)C(F)(F)F)N1CCc2ccccc2[C@@H]1c1ccccc1` [Example 3, 1,1,1,3,3,3-Hexafluoropropan-2-yl (S)-1-phenyl-3,4-dihydroisoquinoline-2(1H)-carboxylate], the pIC50 at Rat ΔTM FAAH, on hMGL, at hFAAH and on hABHD6 was less than 6.00 each time.
As for `O=C(OC(C(F)(F)F)C(F)(F)F)N1CCc2cccc(Br)c2C1` [Example 4, 1,1,1,3,3,3-Hexafluoropropan-2-yl 8-bromo-3,4-dihydroisoquinoline-2(1H)-carboxylate], the pIC50 at Rat ΔTM FAAH is less than 6.00; on hMGL, less than 6.00; at hFAAH, less than 6.00; at hABHD6, 7.00 to 8.00.
As to `O=C(OC(C(F)(F)F)C(F)(F)F)N1Cc2ccc(Br)cc2C1` [Example 8, 1,1,1,3,3,3-Hexafluoropropan-2-yl 5-bromoisoindoline-2-carboxylate], the pIC50 is less than 6.00 on Rat ΔTM FAAH, less than 6.00 at hMGL, less than 6.00 at hFAAH and 7.00 to 8.00 on hABHD6.
Turning to `COc1ccc2c(c1)CN(C(=O)OC(C(F)(F)F)C(F)(F)F)C2` [Example 9, 1,1,1,3,3,3-Hexafluoropropan-2-yl 5-methoxyisoindoline-2-carboxylate], the pIC50 at Rat ΔTM FAAH was less than 6.00; at hMGL it was less than 6.00; at hFAAH, less than 6.00; at hABHD6, 7.00 to 8.00.
Consider `O=C(OC(C(F)(F)F)C(F)(F)F)N1CCc2cc(Br)ccc21` [Example 10, 1,1,1,3,3,3-Hexafluoropropan-2-yl 5-bromoindoline-1-carboxylate], for which the pIC50 was less than 6.00 at Rat ΔTM FAAH, less than 6.00 on hMGL, less than 6.00 on hFAAH and 6.00 to 7.00 on hABHD6.
As to `O=C(OC(C(F)(F)F)C(F)(F)F)N1Cc2cc(Br)cnc2C1` [Example 11, 1,1,1,3,3,3-Hexafluoropropan-2-yl 3-bromo-5,7-dihydro-6H-pyrrolo[3,4-b]pyridine-6-carboxylate], the pIC50 at Rat ΔTM FAAH was less than 6.00; at hMGL, less than 6.00; on hFAAH, less than 6.00; at hABHD6, 6.00 to 7.00.
For the molecule `O=C(OC(C(F)(F)F)C(F)(F)F)N1Cc2cccc(Br)c2C1` [Example 12, 1,1,1,3,3,3-Hexafluoropropan-2-yl 4-bromoisoindoline-2-carboxylate], the pIC50 was less than 6.00 at Rat ΔTM FAAH, less than 6.00 on hMGL, less than 6.00 on hFAAH and 6.00 to 7.00 at hABHD6.
As for `CC1Cc2ccccc2CN1C(=O)OC(C(F)(F)F)C(F)(F)F` (stereo not drawn) [Example 13, 1,1,1,3,3,3-Hexafluoropropan-2-yl 3-methyl-3,4-dihydroisoquinoline-2(1H)-carboxylate], the pIC50 at Rat ΔTM FAAH, at hMGL, at hFAAH and at hABHD6 was less than 6.00 throughout.
Regarding `O=C(OC(C(F)(F)F)C(F)(F)F)N1Cc2ccc(Cl)nc2C1` [Example 14, 1,1,1,3,3,3-Hexafluoropropan-2-yl-2-chloro-5,7-dihydro-6H-pyrrolo[3,4-b]pyridine-6-carboxylate], the pIC50 on Rat ΔTM FAAH was less than 6.00; at hMGL, less than 6.00; at hFAAH, less than 6.00; at hABHD6, 6.00 to 7.00.
Turning to `CC1c2ccc(Br)cc2CN1C(=O)OC(C(F)(F)F)C(F)(F)F` (stereo not drawn) [Example 15, 1,1,1,3,3,3-Hexafluoropropan-2-yl 5-bromo-1-methylisoindoline-2-carboxylate], the pIC50 on Rat ΔTM FAAH, at hMGL, on hFAAH and on hABHD6 was less than 6.00 in each case.
Take `O=C(OC(C(F)(F)F)C(F)(F)F)N1CCc2c(Br)cccc2C1` [Example 16, 1,1,1,3,3,3-Hexafluoropropan-2-yl 5-bromo-3,4-dihydroisoquinoline-2(1H)-carboxylate]: the pIC50 is less than 6.00 at Rat ΔTM FAAH, less than 6.00 on hMGL, less than 6.00 at hFAAH and 7.00 to 8.00 on hABHD6.
Consider `O=C(OC(C(F)(F)F)C(F)(F)F)N1Cc2ccc(OCCN3CCCC3)cc2C1` [Example 49, 1,1,1,3,3,3-Hexafluoropropan-2-yl 5-(2-(pyrrolidin-1-yl)ethoxy)isoindoline-2-carboxylate], for which the results for the pIC50 at Rat ΔTM FAAH, at hMGL and on hABHD6 were less than 6.00, 7.00 to 8.00 and 7.00 to 8.00, respectively.
On to `O=C(COc1ccc2c(c1)CN(C(=O)OC(C(F)(F)F)C(F)(F)F)C2)N1CCOCC1` [Example 50, 1,1,1,3,3,3-Hexafluoropropan-2-yl 5-(2-morpholino-2-oxoethoxy)isoindoline-2-carboxylate], for which the pIC50 was less than 6.00 at Rat ΔTM FAAH, 7.00 to 8.00 at hMGL and 7.00 to 8.00 at hABHD6.
Turning to `O=C(OC(C(F)(F)F)C(F)(F)F)N1CC2(CCC(Oc3cccc(F)c3)C2)C1` (stereo not drawn) [Example 59, 1,1,1,3,3,3-Hexafluoropropan-2-yl 6-(3-fluorophenoxy)-2-azaspiro[3.4]octane-2-carboxylate], the pIC50 at Rat ΔTM FAAH, on hMGL and at hABHD6 was 7.00 to 8.00 in each case.
